# Read-outs that look alike come from different tables or passages of the source.
# Assays:
# [1] = system: Aspergillus niger (ANIG); test: Minimum inhibitory concentration (MIC), broth two-fold serial dilution test; type: cell-based; details: Aspergillus niger, IIIB, trypticase soy broth (complex media); Table IIIb; read-out: MIC (F) ANIG
# [2] = system: ALT; test: In-vitro plant fungicide test; type: cell-based; details: Table IVb, read-out: % Control at (ppm) indicated ALT
# [3] = system: Botrytis cinerea (BOC); test: In-vitro plant fungicide test; type: cell-based; details: Botrytis cinerea
# [4] = system: CER; test: In-vitro plant fungicide test; type: cell-based; details: Table IVb, read-out: % Control at (ppm) indicated CER
# [5] = system: COL; test: In-vitro plant fungicide test; type: cell-based; details: Table IVb, read-out: % Control at (ppm) indicated COL
# [6] = system: Fusarium roseum (FUS); test: In-vitro plant fungicide test; type: cell-based; details: Fusarium sambucinum
# [7] = system: Cochliobolus sativus (HEL); test: In-vitro plant fungicide test; type: cell-based; details: Bipolaris sorokiniana
# [8] = system: MON; test: In-vitro plant fungicide test; type: cell-based; details: Table IVb, read-out: % Control at (ppm) indicated MON
# [9] = system: Phytophthora capsici (PHY); test: In-vitro plant fungicide test; type: cell-based; details: Phytophthora capsici
# [10] = system: Pythium ultimum (PYU); test: In-vitro plant fungicide test; type: cell-based; details: Globisporangium ultimum
# [11] = system: Rhizoctonia solani (RHI); test: In-vitro plant fungicide test; type: cell-based; details: Rhizoctonia solani
# [12] = system: UST; test: In-vitro plant fungicide test; type: cell-based; details: Table IVb, read-out: % Control at (ppm) indicated UST
# [13] = system: Xanthomonas campestris (XAN); test: In-vitro plant fungicide test; type: cell-based; details: Xanthomonas campestris; 25 ppm; Table IVa; read-out: % Control at 25 ppm XAN
# [14] = system: THREE FUNGI; test: MIC test against three fungi in Mycophile Broth, pH 5.0, read after 8 days (Table VII); type: cell-based; details: 192 h, serial dilutions from 50 ppm, read after 8 days of incubation
# [15] = system: Pseudomonas aerugenosa (PSAE); test: Minimum inhibitory concentration (MIC), broth two-fold serial dilution test; details: Pseudomonas, IIIB, read-out: MIC (G-) PSAE, trypticase soy broth (complex media); Table IIIb
# [16] = system: Escherichia coli (ECOL); test: as above; details: Escherichia coli, IIIB, read-out: MIC (G-) ECOL, trypticase soy broth (complex media); Table IIIb
# From the text: (§1) When the test is ready to be done, each vessel in the dilution series, except the first vessel, contains an equal volume of compound free broth. The first vessel contains twice the volume of broth with the starting concentration of test compound. One half of the broth from the first vessel is transferred to the second vessel. After being mixed, one half the resulting volume is removed from the second vessel and transferred to the third vessel. The entire cycle is repeated sufficiently to give a series of concentrations amounting to 500, 250, 125, 63, 31, 16, 8, and 4 ppm (or 100, 50, 25, 12.5, 6.2, 3.1, 1.6, and 0.8), respectively.
# (§2) Each vessel is then inoculated with a cell suspension of the appropriate test organism. Bacteria are grown in broth, fungi on agar slants for a time and at a temperature appropriate to the species being tested, and algae are a mixture of green algae and blue-green bacteria grown in a nutrient media. At the end of the growth period, in the case of bacteria, the broth is vortexed to disperse the cells.
# (§3) The vessels are then incubated at the appropriate temperature. After the incubation, the vessels are examined for growth/no growth.
# [17] = system: Staphylococcus aureus (SAUR); test: as above; details: Staphylococcus aureus, IIIB, read-out: MIC (G+) SAUR, trypticase soy broth (complex media); Table IIIb
# From the text: as §1, §2, §3
structure (smiles),measurement,setting,value
"O=C(CN1C(=O)c2ccccc2C1=O)OCC#CI [Compound 30, N-phthaloylglycine iodopropargyl ester]",MIC,[1],0.12 µg/mL
same,inhibition of growth at 1.5 ppm,[2]; 1.5 ppm,0%
same,inhibition of growth at 3 ppm,[2]; 3 ppm,50%
same,inhibition of growth at 6 ppm,[2]; 6 ppm,90%
same,inhibition of growth at 12 ppm,[2]; 12 ppm,100%
same,inhibition of growth at 25 ppm,[2]; 25 ppm,100%
same,inhibition of growth at 0.2 ppm,[2]; .2 ppm,0%
same,inhibition of growth at 0.4 ppm,[2]; .4 ppm,0%
same,inhibition of growth at 0.8 ppm,[2]; .8 ppm,0%
same,inhibition of growth at 1.5 ppm,"[3]; 1.5 ppm, Table IVb, read-out: % Control at (ppm) indicated BOC",0%
same,inhibition of growth at 6 ppm,"[3]; 6 ppm, Table IVb, read-out: % Control at (ppm) indicated BOC",0%
same,inhibition of growth at 25 ppm,"[3]; Table IVa, *=Phytotoxic, read-out: % Control at 25 ppm BOC",100%
same,inhibition of growth at 25 ppm,"[3]; Table IVb, read-out: % Control at (ppm) indicated BOC",90%
same,inhibition of growth at 0.2 ppm,"[3]; .2 ppm, Table IVb, read-out: % Control at (ppm) indicated BOC",0%
same,inhibition of growth at 0.4 ppm,"[3]; .4 ppm, Table IVb, read-out: % Control at (ppm) indicated BOC",0%
same,inhibition of growth at 0.8 ppm,"[3]; .8 ppm, Table IVb, read-out: % Control at (ppm) indicated BOC",0%
same,inhibition of growth at 1.5 ppm,[4]; 1.5 ppm,0%
same,inhibition of growth at 25 ppm,[4]; 25 ppm,100%
same,inhibition of growth at 0.2 ppm,[4]; .2 ppm,0%
same,inhibition of growth at 0.4 ppm,[4]; .4 ppm,0%
same,inhibition of growth at 0.8 ppm,[4]; .8 ppm,0%
same,inhibition of growth at 1.5 ppm,[5]; 1.5 ppm,0%
same,inhibition of growth at 3 ppm,[5]; 3 ppm,0%
same,inhibition of growth at 6 ppm,[5]; 6 ppm,50%
same,inhibition of growth at 12 ppm,[5]; 12 ppm,100%
same,inhibition of growth at 25 ppm,[5]; 25 ppm,100%
same,inhibition of growth at 0.2 ppm,[5]; .2 ppm,0%
same,inhibition of growth at 0.4 ppm,[5]; .4 ppm,0%
same,inhibition of growth at 0.8 ppm,[5]; .8 ppm,0%
same,inhibition of growth at 25 ppm,"[6]; read-out: % Control at 25 ppm FUS, 25 ppm, Table IVa, *=Phytotoxic",100%
same,inhibition of growth at 1.5 ppm,"[6]; read-out: % Control at (ppm) indicated FUS, 1.5 ppm, Table IVb",0%
same,inhibition of growth at 3 ppm,"[6]; read-out: % Control at (ppm) indicated FUS, 3 ppm, Table IVb",100%
same,inhibition of growth at 6 ppm,"[6]; read-out: % Control at (ppm) indicated FUS, 6 ppm, Table IVb",100%
same,inhibition of growth at 12 ppm,"[6]; read-out: % Control at (ppm) indicated FUS, 12 ppm, Table IVb",100%
same,inhibition of growth at 25 ppm,"[6]; read-out: % Control at (ppm) indicated FUS, 25 ppm, Table IVb",100%
same,inhibition of growth at 0.2 ppm,"[6]; read-out: % Control at (ppm) indicated FUS, .2 ppm, Table IVb",0%
same,inhibition of growth at 0.4 ppm,"[6]; read-out: % Control at (ppm) indicated FUS, .4 ppm, Table IVb",0%
same,inhibition of growth at 0.8 ppm,"[6]; read-out: % Control at (ppm) indicated FUS, .8 ppm, Table IVb",0%
same,inhibition of growth at 1.5 ppm,"[7]; 1.5 ppm, Table IVb, read-out: % Control at (ppm) indicated HEL",0%
same,inhibition of growth at 6 ppm,"[7]; 6 ppm, Table IVb, read-out: % Control at (ppm) indicated HEL",100%
same,inhibition of growth at 25 ppm,"[7]; Table IVa, *=Phytotoxic, read-out: % Control at 25 ppm HEL",100%
same,inhibition of growth at 25 ppm,"[7]; Table IVb, read-out: % Control at (ppm) indicated HEL",100%
same,inhibition of growth at 0.2 ppm,"[7]; .2 ppm, Table IVb, read-out: % Control at (ppm) indicated HEL",0%
same,inhibition of growth at 0.4 ppm,"[7]; .4 ppm, Table IVb, read-out: % Control at (ppm) indicated HEL",0%
same,inhibition of growth at 0.8 ppm,"[7]; .8 ppm, Table IVb, read-out: % Control at (ppm) indicated HEL",0%
same,inhibition of growth at 1.5 ppm,[8]; 1.5 ppm,100%
same,inhibition of growth at 6 ppm,[8]; 6 ppm,100%
same,inhibition of growth at 25 ppm,[8]; 25 ppm,100%
same,inhibition of growth at 0.2 ppm,[8]; .2 ppm,100%
same,inhibition of growth at 0.4 ppm,[8]; .4 ppm,100%
same,inhibition of growth at 0.8 ppm,[8]; .8 ppm,100%
same,inhibition of growth at 1.5 ppm,"[9]; 1.5 ppm, Table IVb, read-out: % Control at (ppm) indicated PHY",100%
same,inhibition of growth at 6 ppm,"[9]; 6 ppm, Table IVb, read-out: % Control at (ppm) indicated PHY",100%
same,inhibition of growth at 25 ppm,"[9]; Table IVa, read-out: % Control at 25 ppm PHY",100%
same,inhibition of growth at 25 ppm,"[9]; Table IVb, read-out: % Control at (ppm) indicated PHY",100%
same,inhibition of growth at 0.2 ppm,"[9]; .2 ppm, Table IVb, read-out: % Control at (ppm) indicated PHY",0%
same,inhibition of growth at 0.4 ppm,"[9]; .4 ppm, Table IVb, read-out: % Control at (ppm) indicated PHY",0%
same,inhibition of growth at 0.8 ppm,"[9]; .8 ppm, Table IVb, read-out: % Control at (ppm) indicated PHY",0%
same,inhibition of growth at 1.5 ppm,"[10]; 1.5 ppm, Table IVb, read-out: % Control at (ppm) indicated PYU",100%
same,inhibition of growth at 6 ppm,"[10]; 6 ppm, Table IVb, read-out: % Control at (ppm) indicated PYU",100%
same,inhibition of growth at 25 ppm,"[10]; Table IVa, read-out: % Control at 25 ppm PYU",100%
same,inhibition of growth at 25 ppm,"[10]; Table IVb, read-out: % Control at (ppm) indicated PYU",100%
same,inhibition of growth at 0.2 ppm,"[10]; .2 ppm, Table IVb, read-out: % Control at (ppm) indicated PYU",100%
same,inhibition of growth at 0.4 ppm,"[10]; .4 ppm, Table IVb, read-out: % Control at (ppm) indicated PYU",100%
same,inhibition of growth at 0.8 ppm,"[10]; .8 ppm, Table IVb, read-out: % Control at (ppm) indicated PYU",100%
same,inhibition of growth at 1.5 ppm,"[11]; 1.5 ppm, Table IVb, read-out: % Control at (ppm) indicated RHI",0%
same,inhibition of growth at 6 ppm,"[11]; 6 ppm, Table IVb, read-out: % Control at (ppm) indicated RHI",100%
same,inhibition of growth at 25 ppm,"[11]; Table IVa, read-out: % Control at 25 ppm RHI",90%
same,inhibition of growth at 25 ppm,"[11]; Table IVb, read-out: % Control at (ppm) indicated RHI",100%
same,inhibition of growth at 0.2 ppm,"[11]; .2 ppm, Table IVb, read-out: % Control at (ppm) indicated RHI",0%
same,inhibition of growth at 0.4 ppm,"[11]; .4 ppm, Table IVb, read-out: % Control at (ppm) indicated RHI",0%
same,inhibition of growth at 0.8 ppm,"[11]; .8 ppm, Table IVb, read-out: % Control at (ppm) indicated RHI",0%
same,inhibition of growth at 1.5 ppm,[12]; 1.5 ppm,0%
same,inhibition of growth at 3 ppm,[12]; 3 ppm,0%
same,inhibition of growth at 6 ppm,[12]; 6 ppm,0%
same,inhibition of growth at 12 ppm,[12]; 12 ppm,0%
same,inhibition of growth at 25 ppm,[12]; 25 ppm,0%
same,inhibition of growth at 0.2 ppm,[12]; .2 ppm,0%
same,inhibition of growth at 0.4 ppm,[12]; .4 ppm,0%
same,inhibition of growth at 0.8 ppm,[12]; .8 ppm,0%
same,inhibition of growth at 25 ppm,[13],0%
same,MIC,"[14]; Aspergillus niger, read-out: MIC ANIG",12.5 µg/mL
same,MIC,"[14]; Aureobasidium pullulans, read-out: MIC APUL",50 µg/mL
same,MIC,"[14]; Gloeophyllum trabeum, read-out: MIC GTRA",6.2 µg/mL
same,MIC,[15],> 250 µg/mL
same,MIC,[16],> 250 µg/mL
same,MIC,[17],> 250 µg/mL

# — patent EP0414533A1, “Use of iodopropargyl esters of alpha-amino acid derivatives as antimicrobial agents” (ROHM AND HAAS COMPANY, priority 1989, dated 1991)
